This is an account of results in patent US5591773A, “Inhibition of cataract formation, diseases resulting from oxidative stress, and HIV replication by caffeic acid esters” (priority 1994, dated 1997).

The test system of data set [1] is TPA-induced H2O2 production in mouse skin. Kind of data set: TPA-induced H2O2 production in skin of SENCAR mice. Format: in vivo. The method, then:
FIGS. 2A-2D. CAPE-mediated inhibition of TPA-induced oxidative processes in SENCAR mice. Mice were topically treated with 6.5 nmol CAPE 30 min prior to 6.5 nmol TPA, and this regimen was repeated 20 h later. Mice were sacrificed 1 h after the last treatment and the skin removed for determination of: (FIG. 2A) PMN infiltration (by measuring myeloperoxidase (MPO)); (FIG. 2B) H2 O2; (FIG. 2C) HMdUrd (HMdU); and (FIG. 2D) 8-OHdGua (8-OHdG), according to procedures described in the "Experimental Details" Section, infra. .quadrature., controls treated with acetone in place of CAPE and TPA; , treatment with acetone followed by TPA; .box-solid., treatment with CAPE followed by TPA. Results are expressed as mean ± SE (bars) from two experiments (2 mice/experiment) in the CAPE series. Data for acetone (ACT)- and TPA-treated mean values were collected from over 20 experiments.
C) MPO, H2 O2, and Oxidized DNA Bases. SENCAR mice were pretreated with CAPE for 30 min; then 6.5 nmol (4 μg) TPA/mouse topically applied to the dorsal skin. After 20 h, the CAPE and TPA treatment (1x) was repeated (2x treatment). One h after the second treatment, the mice were sacrificed by cervical dislocation, and 12.5-mm punches were obtained to be used separately for MPO and H2 O2 determinations. The remainder of the treated mouse skin or the combined skins from two mice were used for separation of epidermal cells. This was done by heating the skin at 55° C. for 30 s followed by rapid immersion into an ice-cold water bath (45). After the epidermis was scraped off, the presence of oxidized DNA base derivatives was measured in the epidermal DNA. All of these end points were analyzed by published procedures and are briefly described below.
Punches used for H2 O2 determination were immediately minced with scissors in cold 50 mM phosphate buffer, pH 7.0, containing 10 mM azide that is needed for inhibition of catalase. They were then homogenized, and centrifuged at 4° C. and the supernatants were stored at -80° C. for up to 1 week. H2 O2 was measured in freshly thawed supernatants using horseradish peroxidase-mediated oxidation of phenol red (21), and the results are expressed as nmol H2 O2 /cm^2 /10-min incubation. Although organic hydroperoxides also can be generated under these conditions (45), we find that H2 O2 constitutes a great majority of the oxidants generated because 60-85% of the oxidants produced are catalase inhibitable (21).
^a Mice were treated as described in the legend to FIG. 2, except tha

The subject of data set [2] is oxidative burst of human PMNs. As to the kind of experiment: H2O2 formation by TPA-stimulated human PMNs (phenol red/HRPO). Format: cell-based. The method, then: FIG. 4. CAPE-mediated inhibition of H2 O2 formation by TPA-stimulated human PMNs. Cells were incubated with CAPE (0.05-5 nmol/ml) and TPA (25 pmol/2.5×10^5 PMNs/ml) at 37° C. for 30 min, and H2 O2 was determined by the phenol red/HRPO assay, as described in the "Experimental Details" Section, infra. Note the semilog scale. The results are presented as mean values ±SE.
A) Human PMNS Blood was obtained from healthy volunteers and collected into EDTA-containing tubes. Red cells were removed by dextran sedimentation and lysis with hypotonic ammonium chloride, as described previously (5). Cells were washed in glucose-containing basic salt solution (137 mM NaCl, 5 mM KCl, 8.5 mM Na2 HPO4 -NaH2 PO4, 0.8 mM MgSO4, 5 mM glucose, pH 7.4) and suspended at a ratio of 10 ml of the initial blood volume/ml basic salt solution. Whole WBC population was used as a source of PMNs, with PMN numbers used per assay being adjusted according to the results of Wright's staining of the peripheral blood.
PMNs (2.5×10^5 /ml) were incubated with CAPE (0.05-5.0 nmol/ml) and/or TPA (25 pmol/ml) at 37° C. for 30 min in the presence of phenol red (100 μg) and HRPO (50 μg) (54). After the reaction was stopped with catalase (50 μg/ml), the pH was adjusted to 12.5 with NaOH, the mixture was centrifuged, and the absorbance of the supernatant was determined at 598 nm. […]

The test system of data set [3] is ornithine decarboxylase (ODC). As to the kind of experiment: TPA-induced ornithine decarboxylase (ODC) in CD-1 mice. The conditions noted are these: CAPE 1 μmol, TPA 5 nmol, (76). The format is in vivo. The method, then: (§1) A) Treatment of Animals and Assays. Female SENCAR (6-8 weeks old) and CD-1 mice (about 7 weeks old) were purchased from Biological Testing, National Cancer Institute (Frederick, Md.) and from Charles River Laboratory (Stone Ridge, N.Y.), respectively. The mice were acclimated for at least 1 week before use. They were subjected to a 12-h light/12-h dark cycle, housed at 20°±2° C. in a room with 10 cycles of air exchanges/h, given food and water ad libitum, and observed for any indication of ill health. Before topical application of any test agents, their backs were shaved and only those without hair growth after 48 h were used.

Data set [4] deals with ornithine decarboxylase (ODC). Kind of data set: TPA-induced ornithine decarboxylase (ODC) in SENCAR mice. The format is in vivo. The settings on record: CAPE 10 μmol, TPA 4 nmol. The method, then: as §1
The next data set has as its system HRPO. As to the kind of experiment: Degradation of H2O2 / inhibition of HRPO. Format: biochemical. The settings on record: unpublished results of Bhimani and Frenkel.
Data set [5] relates to Fischer cloned rat embryo fibroblasts. The settings on record: cited from earlier work.
Data set [6] relates to NIH 10T1/2, Ltk^- and rat 6 cells transformed with T24 oncogene. The conditions noted are these: cited from earlier work.
The next data set has as its system HIV integrase. The settings on record: cited from earlier work.
Data set [7] has as its system untransformed rat 6 cells. The settings on record: cited from earlier work.
A further data set deals with transformed cells. The settings on record: cited from earlier work.
The subject of a further data set is normal tissue. The settings on record: cited from earlier work.
A further data set deals with bovine lens (opacity). The settings on record: 1 μM TPA; cited from earlier work.
Data set [8] relates to TPA-induced cataracts in eyes of rabbits. As to the kind of experiment: TPA-induced cataracts in rabbits in vivo. Also on record: species or system white New Zealand rabbits. The conditions noted are these: daily TPA-containing drops, 6 week period.
A further data set concerns mouse skin. The settings on record: cited from earlier work.

Entries after “also recorded” stand apart in the source; their conditions may differ.

As for `O=C(/C=C/c1ccc(O)c(O)c1)OCCc1ccccc1` [CAPE, Caffeic acid phenethyl ester], the H2O2 in data set [1] (CAPE 6.5 nmol then TPA 6.5 nmol, 2x, (5 experiments), SE 2.2 on next line) was determined as 15.7 nmol/cm^2 skin; in data set [1] (CAPE 650 nmol then TPA 6.5 nmol, 2x, (5 experiments), SE 0.6 on next line), 11.6 nmol/cm^2 skin. For the same molecule, in data set [1] (CAPE 6.5 nmol, TPA 6.5 nmol, 2x, SENCAR mouse skin), the “inhibition of TPA-induced H2O2 formation” value is given as 86%. In addition, the “H2O2 levels at high dose (in words)” value in data set [1] (CAPE 650 nmol/treatment vs 6.5 nmol) is given as “further decreased”. In data set [2] (0.5 h, human PMNs 2.5×10^5/ml, TPA 25 pmol/ml, 37° C., 30 min, read-out: 50% inhibition of oxidative burst of PMNs (H2O2 production)), the IC50 worked out at 500 nM. The “inhibition of oxidative burst (in words)” value in [2] (CAPE 0.05-5.0 nmol/ml) was “inhibited the oxidative burst of PMNs (as measured by H2 O2 production) in a dose-dependent manner”. In addition, the “inhibition of TPA-induced ODC” value in data set [3] is 55%; in data set [4], 62%. Besides, in the data set with HRPO, the “degradation of H2O2 or inhibition of HRPO (in words)” value is “does not degrade H2 O2 or inhibit HRPO”. The “inhibition of adenovirus type 5 E1A-mediated transformation; cytotoxicity (in words)” value in [5] is “inhibit the transformation mediated by adenovirus type 5 E1A; also recorded: more cytotoxic to transformed Fischer cloned rat embryo fibroblasts than to wild type cells”. The “growth inhibition (in words)” value in data set [6] is “inhibited”. In addition, the “HIV integrase inhibition (in words)” value in the data set with HIV integrase is on record as “inhibits HIV integrase”. Also, the “growth inhibition, untransformed rat 6 cells (in words)” value in data set [7] is given as “but not that of the untransformed rat 6 cells”. Further, the “selective toxicity (in words)” value with transformed cells is “selectively toxic to transformed cells but not to normal cells”. The “toxicity to normal tissue (in words)” value in the data set with normal tissue is reported as “not toxic to normal tissue”.

Take `CCCCCCCCCCCCCC(=O)O[C@@H]1[C@@H](C)[C@@]2(O)[C@@H](C=C(CO)C[C@]3(O)C(=O)C(C)=C[C@@H]23)[C@@H]2C(C)(C)[C@]12OC(C)=O` [TPA, 12-O-tetradecanoylphorbol-13-acetate]: the H2O2 in data set [1] (TPA alone, 6.5 nmol, SE 0.7 on next line) worked out at 31.5 nmol/cm^2 skin. Further, the “lens opacity (in words)” value in the data set with bovine lens (opacity) was “even more pronounced; also recorded: causes its opacity”. Further, in data set [8], the “alteration in lens transparency (in words)” value is given as “failed to induce any visible alteration in the transparency of the lenses”. Moreover, the “H2O2 production and oxidation of DNA bases in vivo (in words)” value in the data set with mouse skin was “induce H2 O2 production in mouse skin as well as cause oxidation of DNA bases in vivo”.
